Key:
F508del-CFTR = target: T1, F508del-CFTR (Homo sapiens, UniProt P13569, DEL508-508); experiment: Membrane potential optical (FLIPR) assay for F508del-CFTR modulators in NIH 3T3 cells; format: cell-based; conditions: NIH 3T3 cells expressing F508del; assay A1; read-out: CFTRdF508 Cor 3T3 FLIPR 384 CFTRdF508 MP 3T3 770 EC50
T1 construct: expressed in transfected cells
Excerpt: Membrane Potential Optical Methods for Assaying Properties of F508del-CFTR Modulators
The assay utilizes fluorescent voltage sensing dyes to measure changes in membrane potential using a fluorescent plate reader (e.g., FLIPR III, Molecular Devices, Inc.) as a readout for increase in functional F508del in NIH 3T3 cells. The driving force for the response is the creation of a chloride ion gradient in conjunction with channel activation and concurrent with compound treatment by a single liquid addition step after the cells have previously been loaded with a voltage sensing dye.
A1. Identification of F508del-CFTR Modulators
To identify modulators of F508del, a fluorescence based HTS assay format was developed. This HTS assay utilizes fluorescent voltage sensing dyes to measure changes in membrane potential on the FLIPR III as a measurement for increase in gating (conductance) of F508del NIH 3T3 cells. The driving force for the response is the creation of a chloride ion gradient in conjunction with channel activation and concurrent with compound treatment by a single liquid addition step after the cells have previously been loaded with a voltage sensing dye.
Bath Solution #1: (in mM) NaCl 160, KCl 4.5, CaCl2 2, MgCl2 1, HEPES 10, pH 7.4 with NaOH, Glucose 10.
Chloride-free bath solution: Chloride salts in Bath Solution #1 (above) are substituted with gluconate salts.
NIH3T3 mouse fibroblasts stably expressing F508del were used for optical measurements of membrane potential. The cells were maintained at 37° C. in 5% CO2 and 90% humidity in Dulbecco's modified Eagle's medium supplemented with 2 mM glutamine, 10% fetal bovine serum, 1×NEAA, β-ME, 1× pen/strep, and 25 mM HEPES in 175 cm^2 culture flasks. For all optical assays, the cells were seeded at 12,000 cells/well in 384-well matrigel-coated plates and cultured for 18-24 hrs at 37° C. for the potentiator assay. For the correction assay, the cells were cultured at 37° C. with and without compounds for 18-24 hours.

human PXR = target: T2, human PXR (Homo sapiens, UniProt O75469); experiment: PXR assay: PXR mediated CYP3A4 induction in DPX-2 cell line; format: cell-based; conditions: DPX-2 cells
T2 construct: host or cells: DPX-2 cell line (derived from HepG2)
T2 sequence (O75469 1-434): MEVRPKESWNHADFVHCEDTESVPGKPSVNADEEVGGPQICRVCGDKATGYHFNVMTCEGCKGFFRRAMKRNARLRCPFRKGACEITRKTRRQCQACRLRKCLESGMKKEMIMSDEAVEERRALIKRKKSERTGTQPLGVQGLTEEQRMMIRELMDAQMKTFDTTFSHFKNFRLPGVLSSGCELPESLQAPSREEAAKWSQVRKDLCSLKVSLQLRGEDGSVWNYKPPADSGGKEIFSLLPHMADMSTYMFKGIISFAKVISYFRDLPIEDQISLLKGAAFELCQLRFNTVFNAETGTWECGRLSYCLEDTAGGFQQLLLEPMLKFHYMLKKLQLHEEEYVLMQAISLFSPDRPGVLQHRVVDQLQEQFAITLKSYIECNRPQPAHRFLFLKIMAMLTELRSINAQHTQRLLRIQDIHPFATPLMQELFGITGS
Experimental: D. Experimental Protocol for PXR Assay
The propensity for PXR mediated CYP3A4 induction is assessed using the DPX-2 cell line in vitro. This cell line, which has been licensed from Puracyp Inc. was derived from HepG2 cells and has been stably transfected with genes encoding human PXR as well as a modified luciferase reporter linked to the CYP3A4 promoter region and related distal and proximal enhancers.
The assay is run in 384 well format and each test article is administered in 11 doses ranging from 0.1 to 60 μM. On day 1, DPX-2 cells which have previously been expanded in-house and cryopreserved are thawed and seeded in tissue culture plates. The following day, media is changed and cells are cultured in media containing test article, vehicle control or the positive control compound, the clinically validated CYP3A4 inducer rifampicin. Cells are cultured in the presence of test article for 48 hours and then cell viability is assessed using fluorescence based assay (Cell Titer-Fluor, Promega) with an EnVision Plate Reader (PerkinElmer). Subsequently, CYP3A4 transactivation, which is proportional to luciferase activity, is measured by reading luminescense using the Promega One-Glo reagent system using the same plate reader.
Data processing within the Genedata software package allows reporting of max fold induction compared to vehicle control, an EC50 value for CYP3A4 inducers and an 11 point-dose response curve.

T1 sequence (P13569 with tags, fused parts or gaps DEL508-508): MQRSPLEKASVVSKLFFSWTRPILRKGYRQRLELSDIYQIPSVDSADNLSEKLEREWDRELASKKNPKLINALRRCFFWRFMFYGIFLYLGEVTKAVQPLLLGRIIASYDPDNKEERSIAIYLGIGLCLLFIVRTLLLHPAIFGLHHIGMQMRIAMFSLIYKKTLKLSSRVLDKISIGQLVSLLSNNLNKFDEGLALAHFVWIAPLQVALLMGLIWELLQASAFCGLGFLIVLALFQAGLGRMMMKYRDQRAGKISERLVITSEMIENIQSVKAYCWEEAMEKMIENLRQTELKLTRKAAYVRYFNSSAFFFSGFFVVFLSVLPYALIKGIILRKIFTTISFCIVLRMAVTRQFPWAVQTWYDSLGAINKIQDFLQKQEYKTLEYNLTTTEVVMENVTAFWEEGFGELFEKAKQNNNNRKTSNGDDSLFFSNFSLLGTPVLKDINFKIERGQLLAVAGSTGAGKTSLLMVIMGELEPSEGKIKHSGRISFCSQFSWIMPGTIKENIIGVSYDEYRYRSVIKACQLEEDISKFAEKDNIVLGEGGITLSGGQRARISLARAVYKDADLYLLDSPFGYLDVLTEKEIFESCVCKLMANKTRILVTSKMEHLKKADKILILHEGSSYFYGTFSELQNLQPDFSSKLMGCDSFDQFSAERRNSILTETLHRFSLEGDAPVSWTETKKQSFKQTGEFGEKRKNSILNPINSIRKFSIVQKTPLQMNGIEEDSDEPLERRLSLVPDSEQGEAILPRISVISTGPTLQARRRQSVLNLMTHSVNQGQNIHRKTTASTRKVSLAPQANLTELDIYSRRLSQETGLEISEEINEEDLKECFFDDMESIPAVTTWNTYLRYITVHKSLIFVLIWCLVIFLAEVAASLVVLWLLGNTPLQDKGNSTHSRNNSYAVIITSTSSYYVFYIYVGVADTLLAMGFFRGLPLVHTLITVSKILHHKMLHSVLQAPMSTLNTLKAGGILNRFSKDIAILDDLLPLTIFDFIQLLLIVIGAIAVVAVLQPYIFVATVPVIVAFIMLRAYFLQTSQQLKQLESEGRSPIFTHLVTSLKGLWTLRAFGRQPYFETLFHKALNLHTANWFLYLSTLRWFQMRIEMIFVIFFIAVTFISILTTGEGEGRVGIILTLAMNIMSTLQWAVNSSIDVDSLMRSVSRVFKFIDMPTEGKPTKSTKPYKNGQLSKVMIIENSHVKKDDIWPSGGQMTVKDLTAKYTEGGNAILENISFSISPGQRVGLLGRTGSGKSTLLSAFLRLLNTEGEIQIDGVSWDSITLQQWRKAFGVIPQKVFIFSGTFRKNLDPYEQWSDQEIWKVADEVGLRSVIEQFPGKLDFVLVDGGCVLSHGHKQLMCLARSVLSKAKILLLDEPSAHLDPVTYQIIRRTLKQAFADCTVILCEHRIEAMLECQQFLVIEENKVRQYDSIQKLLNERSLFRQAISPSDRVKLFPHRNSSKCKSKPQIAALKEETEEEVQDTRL

SMILES	EC50 (F508del-CFTR)	CYP3A4 Induction-PXR human PXR internal Max % Activity (human PXR)
Cc1nn(C)cc1S(=O)(=O)NC(=O)c1ccc(-n2ccc(OCC3(C(F)(F)F)CC3)n2)nc1N1CC(C(C)(C)C)CC1(C)C (racemic) [Compound 40, 2-(4-tert-Butyl-2,2-dimethyl-pyrrolidin-1-yl)-N-(1,3-dimethylpyrazol-4-yl)sulfonyl-6-[3-[[1-(trifluoromethyl)cyclopropyl]methoxy]pyrazol-1-yl]pyridine-3-carboxamide]	80 nM	13%
Cc1c(S(=O)(=O)NC(=O)c2ccc(-n3ccc(OCC(C4CC4)C4CC4)n3)nc2N2C[C@@H](C)CC2(C)C)cnn1C [Compound 33, 6-[3-(2,2-dicyclopropylethoxy)pyrazol-1-yl]-N-(1,5-dimethylpyrazol-4-yl)sulfonyl-2-[(4S)-2,2,4-trimethylpyrrolidin-1-yl]pyridine-3-carboxamide]	370 nM	5%
Cc1nn(C)cc1S(=O)(=O)NC(=O)c1ccc(-n2ccc(OCC3(C(F)(F)F)CC3)n2)nc1N1CC(C(C)C)CC1(C)C (racemic) [Compound 41, N-(1,3-dimethylpyrazol-4-yl)sulfonyl-2-(4-isopropyl-2,2-dimethyl-pyrrolidin-1-yl)-6-[3-[[1-(trifluoromethyl)cyclopropyl]methoxy]pyrazol-1-yl]pyridine-3-carboxamide]	120 nM	4%
Cc1nn(C)cc1S(=O)(=O)NC(=O)c1ccc(-n2ccc(OCCC3C4(CC4)C34CC4)n2)nc1N1C[C@@H](C)CC1(C)C [Compound 56, N-(1,3-Dimethylpyrazol-4-yl)sulfonyl-6-[3-(2-dispiro[2.0.2.1]heptan-7-ylethoxy)pyrazol-1-yl]-2-[(4S)-2,2,4-trimethylpyrrolidin-1-yl]pyridine-3-carboxamide]	–	11%
Cc1nn(C)cc1S(=O)(=O)NC(=O)c1ccc(-n2ccc(OCC3(C(F)(F)F)CC3)n2)nc1N1CC(C)CC12CC2 (centres unmarked) [Compound 44, N-(1,3-dimethylpyrazol-4-yl)sulfonyl-2-(6-methyl-4-azaspiro[2.4]heptan-4-yl)-6-[3-[[1-(trifluoromethyl)cyclopropyl]methoxy]pyrazol-1-yl]pyridine-3-carboxamide]	390 nM	–
Cc1nn(C)cc1S(=O)(=O)NC(=O)c1ccc(-n2ccc(OCC3(C(F)(F)F)CC3)n2)nc1N1CC(C)CC1(C)C (centres unmarked) [Compound 42, N-(1,3-dimethylpyrazol-4-yl)sulfonyl-6-[3-[[1-(trifluoromethyl)cyclopropyl]methoxy]pyrazol-1-yl]-2-(2,2,4-trimethylpyrrolidin-1-yl)pyridine-3-carboxamide]	610 nM	16%
C[C@@H]1CN(c2nc(-n3ccc(OCCC4(C(F)(F)F)CC4)n3)ccc2C(=O)NS(=O)(=O)c2cn(C)nc2C(F)(F)F)C(C)(C)C1 [Compound 55, N-[1-methyl-3-(trifluoromethyl)pyrazol-4-yl]sulfonyl-6-[3-[2-[1-(trifluoromethyl)cyclopropyl]ethoxy]pyrazol-1-yl]-2-[(4S)-2,2,4-trimethylpyrrolidin-1-yl]pyridine-3-carboxamide]	100 nM	9%
Cc1c(S(=O)(=O)NC(=O)c2ccc(-n3ccc(OCC4(C)CC4(F)F)n3)nc2N2C[C@@H](C)CC2(C)C)cnn1C (stereo partly drawn) [Compound 24, 6-[3-[(2,2-Difluoro-1-methyl-cyclopropyl)methoxy]pyrazol-1-yl]-N-(1,5-dimethylpyrazol-4-yl)sulfonyl-2-[(4S)-2,2,4-trimethylpyrrolidin-1-yl]pyridine-3-carboxamide]	710 nM	6%
[2H]C([2H])([2H])[C@@H]1CN(c2nc(-n3ccc(OCC(C)(C)C(F)(F)F)n3)ccc2C(=O)NS(=O)(=O)c2cn(C)nc2C)C(C)(C)C1([2H])[2H] [Compound 29, (S)—N-((1,3-dimethyl-1H-pyrazol-4-yl)sulfonyl)-2-(2,2-dimethyl-4-(methyl-d3)pyrrolidin-1-yl-3,3-d2)-6-(3-(3,3,3-trifluoro-2,2-dimethylpropoxy)-1H-pyrazol-1-yl)nicotinamide]	110 nM	–
Cc1nn(C)cc1S(=O)(=O)NC(=O)c1ccc(-n2ccc(OCC3(C(F)(F)F)CC3)n2)nc1N1CC(C(C)(C)C)CC1(C)C (single isomer, unassigned) [Compound 53, 2-(4-tert-butyl-2,2-dimethyl-pyrrolidin-1-yl)-N-(1,3-dimethylpyrazol-4-yl)sulfonyl-6-[3-[[1-(trifluoromethyl)cyclopropyl]methoxy]pyrazol-1-yl]pyridine-3-carboxamide]	390 nM	7%
Cc1nn(C)cc1S(=O)(=O)NC(=O)c1ccc(-n2ccc(OCC3(C(F)(F)F)CC3)n2)nc1N1CC(C)CC12CCC2 (centres unmarked) [Compound 43, N-(1,3-dimethylpyrazol-4-yl)sulfonyl-2-(7-methyl-5-azaspiro[3.4]octan-5-yl)-6-[3-[[1-(trifluoromethyl)cyclopropyl]methoxy]pyrazol-1-yl]pyridine-3-carboxamide]	220 nM	4%
C[C@@H]1CN(c2nc(-n3ccc(OC4CC4)n3)ccc2C(=O)NS(=O)(=O)c2cnn(C)c2)C(C)(C)C1 [Compound 22, 6-[3-(Cyclopropoxy)pyrazol-1-yl]-N-(1-methylpyrazol-4-yl)sulfonyl-2-[(4S)-2,2,4-trimethylpyrrolidin-1-yl]pyridine-3-carboxamide]	2100 nM	–
Cc1nn(C)cc1S(=O)(=O)NC(=O)c1ccc(-n2ccc(OCC3(C(F)(F)F)CC3)n2)nc1N1C[C@@H](C(C)C)CC1(C)C (single isomer, unassigned) [Compound 47, N-(1,3-dimethylpyrazol-4-yl)sulfonyl-2-(4-isopropyl-2,2-dimethyl-pyrrolidin-1-yl)-6-[3-[[1-(trifluoromethyl)cyclopropyl]methoxy]pyrazol-1-yl]pyridine-3-carboxamide]	60 nM	–
CCC1CN(c2nc(-n3ccc(OCC4(C(F)(F)F)CC4)n3)ccc2C(=O)NS(=O)(=O)c2cn(C)nc2C)C(C)(C)C1 (centres unmarked) [Compound 49, N-(1,3-dimethylpyrazol-4-yl)sulfonyl-2-(4-ethyl-2,2-dimethyl-pyrrolidin-1-yl)-6-[3-[[1-(trifluoromethyl)cyclopropyl]methoxy]pyrazol-1-yl]pyridine-3-carboxamide]	190 nM	–
Cc1nn(C)cc1S(=O)(=O)NC(=O)c1ccc(-n2ccc(OCC3(C(F)(F)F)CC3)n2)nc1N1C[C@@H](C(C)C)CC1(C)C (single isomer, unassigned) [Compound 46, N-(1,3-dimethylpyrazol-4-yl)sulfonyl-2-(4-isopropyl-2,2-dimethyl-pyrrolidin-1-yl)-6-[3-[[1-(trifluoromethyl)cyclopropyl]methoxy]pyrazol-1-yl]pyridine-3-carboxamide]	390 nM	–

Source: patent US10793547B2, “Modulator of the cystic fibrosis transmembrane conductance regulator, pharmaceutical compositions, methods of treatment, and process for making the modulator” (Vertex Pharmaceuticals Incorporated, priority 2016, dated 2020)
